Experimental data published in article PMC11655885, “Structural mechanism of CB1R binding to peripheral and biased inverse agonists” (Nature Communications, 2024).
Several values for one entry are separate records, joined by “and”; a condition that tells them apart may be missing. Equal entries are not always repeated.

Key:
hCB1R = target: T1, hCB1R (Homo sapiens, UniProt P21554); assay: Inhibition of CP55,940-induced [35S]GTPγS binding in hCB1R-CHO-K1 cell membranes; assay type: biochemical; settings: for [35S]GTPγS binding, % basal response / [35S]GTPγS binding, cpm values: averages of Experiments 1-4, listed as S-MRI-1867
T1 construct: purchased Revvity ES-110-M400UA; host or cells: CHO-K1 (recombinant hCB1R), membranes
T1 sequence (P21554 whole entry): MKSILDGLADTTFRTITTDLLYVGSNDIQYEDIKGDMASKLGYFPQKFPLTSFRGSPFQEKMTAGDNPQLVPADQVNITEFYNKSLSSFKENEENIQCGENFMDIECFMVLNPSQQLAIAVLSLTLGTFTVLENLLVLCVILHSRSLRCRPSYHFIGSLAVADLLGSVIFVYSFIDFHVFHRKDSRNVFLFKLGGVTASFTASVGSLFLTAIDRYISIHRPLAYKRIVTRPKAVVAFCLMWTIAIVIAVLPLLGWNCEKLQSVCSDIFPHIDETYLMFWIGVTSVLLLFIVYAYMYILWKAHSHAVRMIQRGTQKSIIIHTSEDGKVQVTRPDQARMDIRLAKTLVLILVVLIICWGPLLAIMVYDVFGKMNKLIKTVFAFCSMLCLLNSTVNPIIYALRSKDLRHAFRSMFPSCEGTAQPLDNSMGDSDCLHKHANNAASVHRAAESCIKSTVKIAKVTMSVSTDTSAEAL
Description: The inhibitory potencies of the antagonists in G protein signaling were measured as described previously. […] GTPγS binding at the ~EC80 level. hCB1R-CHO-K1 cell membrane (4 μg) (Revvity, ES-110-M400UA) was incubated with 0.05 nM [^35S]GTPγS (Revvity) and the indicated concentrations of ligands in TEM buffer (50 mM Tris-HCl, 0.2 mM EGTA, and 9 mM MgCl2, pH 7.4) containing 100 µM GDP, 150 mM NaCl, and 0.1% (w/v) bovine serum albumin in a total volume of 1 ml for 60 min at 30 °C. […] Agonist-stimulated [^35S]GTPγS binding was expressed as the percent of increase over baseline. Bound and free [^35S]GTPγS levels were separated by vacuum filtration through Whatman GF/B filters using a Brandel M24 Cell Harvester (Gaithersburg, MD). Filters were washed with 3 × 5-ml of ice-cold buffer, and radioactivity was detected by scintillation spectrometry (LS6500; Beckman Coulter). Dose-response curves were generated in the presence of increasing concentrations of antagonists. Concentration-response relationships were analyzed by fitting the data to the three-parameter model ‘log(agonist) vs response’ in GraphPad Prism 10.

hCNR1 = target: T2, hCNR1 (Homo sapiens, UniProt P21554); assay: Inhibition of CP55,940-induced β-arrestin-2 recruitment, PathHunter eXpress CNR1 CHO-K1 assay; assay type: cell-based; settings: for β-arrestin-2 recruitment, % basal response / β-arrestin-2 recruitment, lum values: averages of single experiments, listed as S-MRI-1867
T2 construct: host or cells: CHO-K1 (PathHunter eXpress CNR1 β-arrestin-2, purchased recombinant cell line)
T2 sequence (P21554 whole entry): as above
Description: The inhibitory potencies of the antagonists in β-arrestin-2 signaling was measured using the DiscoverX β-arrestin-2 recruitment assay for hCNR1 (Eurofins, catalog # 93-0959E2CP). The assay was performed following supplier’s instructions. […] Concentration-response relationships were analyzed by fitting the data to the three-parameter model ‘log(agonist) vs response’ in GraphPad Prism 10.

[1] = 300 nM CP55,940 + 0.001 nM antagonist
[2] = 300 nM CP55,940 + 0.01 nM antagonist
[3] = 300 nM CP55,940 + 0.1 nM antagonist
[4] = 300 nM CP55,940 + 1 nM antagonist
[5] = 300 nM CP55,940 + 10 nM antagonist
[6] = 300 nM CP55,940 + 100 nM antagonist
[7] = 300 nM CP55,940 + 1000 nM antagonist
[8] = 25 nM CP55,940 + 0.001 nM antagonist
[9] = 25 nM CP55,940 + 0.01 nM antagonist
[10] = 25 nM CP55,940 + 0.1 nM antagonist
[11] = 25 nM CP55,940 + 0.3 nM antagonist
[12] = 25 nM CP55,940 + 1 nM antagonist
[13] = 25 nM CP55,940 + 3 nM antagonist
[14] = 25 nM CP55,940 + 10 nM antagonist
[15] = 25 nM CP55,940 + 30 nM antagonist
[16] = 25 nM CP55,940 + 100 nM antagonist
[17] = 25 nM CP55,940 + 300 nM antagonist
[18] = 25 nM CP55,940 + 1000 nM antagonist

For `C/C(N)=N\C(=N/S(=O)(=O)c1ccc(C(F)(F)F)cc1)N1C[C@H](c2ccccc2)C(c2ccc(Cl)cc2)=N1` [MRI-1867], the “[35S]GTPγS binding, normalized % response, MEAN” value (hCB1R; [1]) was 100%, the “[35S]GTPγS binding, % basal response” value (hCB1R; [1]) was 290% and 251% and 295% and 282% and the “[35S]GTPγS binding, cpm values” (hCB1R; [1]) was 1594 cpm and 1615 cpm. For the same molecule, the “[35S]GTPγS binding, normalized % response, MEAN” value (hCB1R; [2]) was 103%, the “[35S]GTPγS binding, % basal response” value (hCB1R; [2]) was 299% and 260% and 293% and 288% and the “[35S]GTPγS binding, cpm values” (hCB1R; [2]) was 1631 cpm and 1642 cpm and 1604 cpm and 1643 cpm. For the same molecule, the “[35S]GTPγS binding, normalized % response, MEAN” value (hCB1R; [3]) was 104%, the “[35S]GTPγS binding, % basal response” value (hCB1R; [3]) was 295% and 268% and 298% and 291% and the “[35S]GTPγS binding, cpm values” (hCB1R; [3]) was 1615 cpm and 1679 cpm and 1625 cpm and 1656 cpm. For the same molecule, the “[35S]GTPγS binding, normalized % response, MEAN” value (hCB1R; [4]) was 93%, the “[35S]GTPγS binding, % basal response” value (hCB1R; [4]) was 284% and 248% and 259% and 273% and the “[35S]GTPγS binding, cpm values” (hCB1R; [4]) was 1566 cpm and 1581 cpm and 1462 cpm and 1577 cpm. For the same molecule, the “[35S]GTPγS binding, normalized % response, MEAN” value (hCB1R; [5]) was 70%, the “[35S]GTPγS binding, % basal response” value (hCB1R; [5]) was 235% and 198% and 224% and 228% and the “[35S]GTPγS binding, cpm values” (hCB1R; [5]) was 1358 cpm and 1331 cpm and 1312 cpm and 1377 cpm. The “[35S]GTPγS binding, normalized % response, MEAN” value (hCB1R; [6]) was 29%, the “[35S]GTPγS binding, % basal response” value (hCB1R; [6]) was 146% and 141% and 155% and 131% and the “[35S]GTPγS binding, cpm values” (hCB1R; [6]) was 973 cpm and 1046 cpm and 1021 cpm and 947 cpm. The “[35S]GTPγS binding, normalized % response, MEAN” value (hCB1R; [7]) was 0%, the “[35S]GTPγS binding, % basal response” value (hCB1R; [7]) was 92% and 76% and 93% and 86% and the “[35S]GTPγS binding, cpm values” (hCB1R; [7]) was 742 cpm and 722 cpm and 759 cpm and 747 cpm. For the same molecule, the IC50 (hCB1R; 300 nM CP-55,940, hCB1R-CHO-K1 cell membranes, read-out: IC50 ± S.E.M. [35S]GTPγS binding) was 0.028 ± 0.0015 µM, the “β-arrestin-2 recruitment, normalized % response, MEAN” value (hCNR1; [8]) was 100% and the “β-arrestin-2 recruitment, % basal response” value (hCNR1; [8]) was 422% and 598% and 458% and 350%. For the same molecule, the “β-arrestin-2 recruitment, lum values” (hCNR1; [8]) was 15361 lum and 21612 lum and 16563 lum and 12404 lum, the “β-arrestin-2 recruitment, normalized % response, MEAN” value (hCNR1; [9]) was 101% and the “β-arrestin-2 recruitment, % basal response” value (hCNR1; [9]) was 416% and 542% and 524% and 349%. For the same molecule, the “β-arrestin-2 recruitment, lum values” (hCNR1; [9]) was 15142 lum and 19591 lum and 18948 lum and 12375 lum, the “β-arrestin-2 recruitment, normalized % response, MEAN” value (hCNR1; [10]) was 105% and the “β-arrestin-2 recruitment, % basal response” value (hCNR1; [10]) was 408% and 586% and 562% and 342%. For the same molecule, the “β-arrestin-2 recruitment, lum values” (hCNR1; [10]) was 14843 lum and 21209 lum and 20344 lum and 12137 lum, the “β-arrestin-2 recruitment, normalized % response, MEAN” value (hCNR1; [11]) was 110% and the “β-arrestin-2 recruitment, % basal response” value (hCNR1; [11]) was 444% and 560% and 594% and 359%. The “β-arrestin-2 recruitment, lum values” (hCNR1; [11]) was 16156 lum and 20271 lum and 21487 lum and 12718 lum, the “β-arrestin-2 recruitment, normalized % response, MEAN” value (hCNR1; [12]) was 102% and the “β-arrestin-2 recruitment, % basal response” value (hCNR1; [12]) was 412% and 538% and 543% and 345%. The “β-arrestin-2 recruitment, lum values” (hCNR1; [12]) was 15011 lum and 19443 lum and 19638 lum and 12234 lum, the “β-arrestin-2 recruitment, normalized % response, MEAN” value (hCNR1; [13]) was 71% and the “β-arrestin-2 recruitment, % basal response” value (hCNR1; [13]) was 355% and 425% and 371% and 250%. The “β-arrestin-2 recruitment, lum values” (hCNR1; [13]) was 12924 lum and 15375 lum and 13421 lum and 8857 lum, the “β-arrestin-2 recruitment, normalized % response, MEAN” value (hCNR1; [14]) was 24% and the “β-arrestin-2 recruitment, % basal response” value (hCNR1; [14]) was 162% and 213% and 215% and 121%. The “β-arrestin-2 recruitment, lum values” (hCNR1; [14]) was 5897 lum and 7687 lum and 7765 lum and 4277 lum, the “β-arrestin-2 recruitment, normalized % response, MEAN” value (hCNR1; [15]) was 10% and the “β-arrestin-2 recruitment, % basal response” value (hCNR1; [15]) was 113% and 143% and 144% and 91%. The “β-arrestin-2 recruitment, lum values” (hCNR1; [15]) was 4118 lum and 5161 lum and 5210 lum and 3224 lum, the “β-arrestin-2 recruitment, normalized % response, MEAN” value (hCNR1; [16]) was 4.5% and the “β-arrestin-2 recruitment, % basal response” value (hCNR1; [16]) was 94% and 126% and 124% and 74%. For the same molecule, the “β-arrestin-2 recruitment, lum values” (hCNR1; [16]) was 3418 lum and 4556 lum and 4497 lum and 2623 lum, the “β-arrestin-2 recruitment, normalized % response, MEAN” value (hCNR1; [17]) was 3.5% and the “β-arrestin-2 recruitment, % basal response” value (hCNR1; [17]) was 79% and 121% and 133% and 72%. The “β-arrestin-2 recruitment, lum values” (hCNR1; [17]) was 2866 lum and 4366 lum and 4803 lum and 2549 lum, the “β-arrestin-2 recruitment, normalized % response, MEAN” value (hCNR1; [18]) was 0% and the “β-arrestin-2 recruitment, % basal response” value (hCNR1; [18]) was 98% and 84% and 76% and 78%. The “β-arrestin-2 recruitment, lum values” (hCNR1; [18]) was 3584 lum and 3036 lum and 2733 lum and 2778 lum, the IC50 (hCNR1; CP55,940 at ~EC80, read-out: IC50 ± S.E.M. β-arrestin2 recruitment) was 0.0056 ± 0.0007 µM and the “bias: difference in IC50, G protein ([35S]GTPγS) versus β-arrestin2” value (hCNR1; human CB1R-containing cell membranes) was 5 fold.
